The text below walks through data of PubChem BioAssay (NCI).

Molecules are shown by their SMILES.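 Where inhibition never reached the appropriate level, the endpoint shown equals the highest concentration tested. Otherwise, values were interpolated linearly from a five-concentration, 48-hour dose response in 96-well plates. The concentration for full growth arrest is given as TGI.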

Test systems include HCT-116 colon; HCT-15 colon; HS 578T breast; MCF7 breast; NCI-H226 lung; OVCAR-4 ovarian; SF-268 CNS; SK-MEL-28 melanoma; TK-10 renal; UACC-62 melanoma.
Common to all, as to assay: NCI-60 cell line screen, 48 h

`CCNC1=C(NC(=O)CC)C(=O)c2ccccc2C1=O`: the TGI in the experiment with HCT-116 colon, in the experiment with HCT-15 colon, with HS 578T breast, in the experiment with MCF7 breast, in the experiment with NCI-H226 lung and in the experiment on OVCAR-4 ovarian was > 100 µM in each case. Also, the TGI in the experiment with SF-268 CNS, in the experiment on SK-MEL-28 melanoma, in the experiment on TK-10 renal and with UACC-62 melanoma was > 100 µM each time.

Turning to `CCC(c1c[nH]c2ccc(Br)cc12)c1c[nH]c2ccc(Br)cc12`, the TGI was found to be 15.1 µM with HCT-116 colon; 15 µM in the experiment with HCT-15 colon; 27 µM in the experiment with HS 578T breast; 15.5 µM in the experiment on MCF7 breast; 44 µM with NCI-H226 lung; 8.11 µM in the experiment with OVCAR-4 ovarian. Also, the TGI in the experiment with SF-268 CNS came to 20.7 µM; with SK-MEL-28 melanoma, 25.4 µM; in the experiment on TK-10 renal, 22.9 µM; with UACC-62 melanoma, 22.2 µM.

With `C=CCOC(=O)C1C2OC3(C(C(=O)OC)=C2C(=O)OC)c2ccccc2CCC13` (stereo not given), the TGI in the experiment on HCT-116 colon, in the experiment on HCT-15 colon, in the experiment on HS 578T breast, with MCF7 breast, with NCI-H226 lung and with OVCAR-4 ovarian was > 10 µM each time. In addition, the TGI in the experiment on SF-268 CNS, with SK-MEL-28 melanoma, in the experiment on TK-10 renal and in the experiment on UACC-62 melanoma was > 10 µM throughout.

Turning to `CN(C)CCCN1c2ccccc2CCc2ccc([N+](=O)[O-])cc21`, the TGI in the experiment on HCT-116 colon was > 100 µM; in the experiment on HCT-15 colon it was 57.7 µM; with HS 578T breast, > 100 µM; with MCF7 breast it was 34.1 µM; in the experiment on NCI-H226 lung, 90.4 µM; in the experiment on OVCAR-4 ovarian it was > 100 µM. Further, the TGI was > 100 µM in the experiment on SF-268 CNS, 77.9 µM in the experiment on SK-MEL-28 melanoma, 41.8 µM in the experiment with TK-10 renal and 33.3 µM with UACC-62 melanoma.

For `O[C@H]1[C@H](O)[C@@H](O)[C@@]2(O)C[C@@H](O)[C@@H]1N2`, the TGI in the experiment with HCT-116 colon, in the experiment with HCT-15 colon, with HS 578T breast, in the experiment with MCF7 breast, in the experiment with NCI-H226 lung and in the experiment with OVCAR-4 ovarian was > 100 µM each time. Moreover, the TGI in the experiment on SF-268 CNS, in the experiment on SK-MEL-28 melanoma, in the experiment on TK-10 renal and with UACC-62 melanoma was > 100 µM in each case.

Consider `Nc1nc(Cl)c(N)c(NCC2(CO)CC(CCCc3ccccc3)C2)n1` (stereo not given), for which the TGI in the experiment on HCT-116 colon is > 100 µM; with HCT-15 colon, > 100 µM; with HS 578T breast it was > 100 µM; in the experiment with MCF7 breast it was > 85.7 µM; in the experiment on NCI-H226 lung it was > 63.7 µM; in the experiment with OVCAR-4 ovarian, > 100 µM. The TGI with SF-268 CNS is > 55.3 µM; in the experiment with SK-MEL-28 melanoma, > 100 µM; in the experiment on TK-10 renal it was > 100 µM; in the experiment on UACC-62 melanoma, > 100 µM.

Consider `CCN(c1cccc(NC(=S)Nc2ccccc2N(CC)c2cc(-c3ccccc3)no2)c1)c1cc(-c2ccccc2)no1`, for which the TGI with HCT-116 colon, with HCT-15 colon, in the experiment with HS 578T breast, in the experiment with MCF7 breast, in the experiment on NCI-H226 lung and in the experiment with OVCAR-4 ovarian was > 100 µM each time. In addition, the TGI in the experiment with SF-268 CNS, in the experiment with SK-MEL-28 melanoma, in the experiment on TK-10 renal and in the experiment on UACC-62 melanoma was > 100 µM each time.

Consider `COc1nc(N)c(N=CC(OC(C)=O)C(OC(C)=O)C(COC(C)=O)OC(C)=O)c(=O)n1C` (stereo not given), for which the TGI in the experiment on HCT-116 colon, in the experiment with HCT-15 colon, in the experiment with HS 578T breast, in the experiment on MCF7 breast, in the experiment with NCI-H226 lung and in the experiment with OVCAR-4 ovarian was > 100 µM throughout. Besides, the TGI with SF-268 CNS, with SK-MEL-28 melanoma, with TK-10 renal and with UACC-62 melanoma was > 100 µM in each case.

In the case of `Cc1ccc(/C(O)=C/C(=O)C(=O)NN=C(c2ccccc2)c2ccccc2)cc1`, the TGI in the experiment with HCT-116 colon, with HCT-15 colon, in the experiment on HS 578T breast, with MCF7 breast, in the experiment on NCI-H226 lung and in the experiment with OVCAR-4 ovarian was > 100 µM in each case. The TGI in the experiment with SF-268 CNS, in the experiment with SK-MEL-28 melanoma, in the experiment on TK-10 renal and in the experiment with UACC-62 melanoma was > 100 µM each time.

`CSCCC(NC(=O)Cc1ccc(C(=O)c2ccccc2)cc1)C(=O)O` (stereo not given): the TGI with HCT-116 colon, in the experiment on HCT-15 colon, in the experiment with HS 578T breast, in the experiment on MCF7 breast, with NCI-H226 lung and with OVCAR-4 ovarian was > 100 µM in each case. For the same compound, the TGI in the experiment with SF-268 CNS, with SK-MEL-28 melanoma, with TK-10 renal and in the experiment with UACC-62 melanoma was > 100 µM each time.

As to `CCN(CC)Cc1sc2nc3ccccc3n2c1-c1ccc(OC)cc1`, the TGI with HCT-116 colon is > 100 µM; in the experiment on HCT-15 colon, > 100 µM; in the experiment on HS 578T breast, > 100 µM; in the experiment with MCF7 breast, > 100 µM; with NCI-H226 lung, 71.4 µM; in the experiment on OVCAR-4 ovarian, > 100 µM. The TGI in the experiment with SF-268 CNS, with SK-MEL-28 melanoma, with TK-10 renal and with UACC-62 melanoma was > 100 µM each time.

Regarding `c1ccc(CSCCc2ccncc2)cc1`, the TGI with HCT-116 colon, in the experiment with HCT-15 colon, with HS 578T breast, in the experiment with MCF7 breast, in the experiment with NCI-H226 lung and in the experiment with OVCAR-4 ovarian was > 100 µM throughout. Further, the TGI in the experiment on SF-268 CNS, in the experiment on SK-MEL-28 melanoma, with TK-10 renal and in the experiment with UACC-62 melanoma was > 100 µM each time.

As to `O=c1onc2c3ccccc3ncn12`, the TGI in the experiment with HCT-116 colon, in the experiment with HCT-15 colon, in the experiment on HS 578T breast, in the experiment with MCF7 breast, with NCI-H226 lung and in the experiment on OVCAR-4 ovarian was > 100 µM throughout. In addition, the TGI in the experiment on SF-268 CNS, in the experiment with SK-MEL-28 melanoma, in the experiment on TK-10 renal and in the experiment on UACC-62 melanoma was > 100 µM in each case.
